The values below come from patent US6984754B1, “Aliphatic amino carboxylic and amino phosphonic acids amino nitriles and amino tetrazoles as cellular rescue agents” (University of Saskatchewan Technologies Inc., priority 1998, dated 2006).

In series [1] the test system is cerebellar granule cells (CGC). As to the kind of experiment: Antiapoptotic capacity (rescue) in cerebellar granule cells induced into apoptosis by cytosine arabinoside (CGC assay). Format: cell-based, Wistar rat. An excerpt: In Vitro Protocol for Assessing the Antiapoptotic Capacity of Various Compounds in Cerebellar Granule Cells
Cultures of cerebellar granule cells (CGC) can be induced into apoptosis by the addition of a high concentration of cytosine arabinoside (AraC). It has been shown that this is a p53 dependent apoptosis. We have measured the antiapoptotic effect of some amino acids, amino esters, amino phosphonic acids, amino nitriles and amino tetrazoles using this system.
Cultures of CGC were obtained from 6-8 day old Wistar rat pups. Cultures were grown on glass in 35 mm petri dishes for three days and then used for experiments. Aliquots (20 ul) of drug solutions (AraC, anti-apoptotic drugs, drug vehicles) were added to the medium of the culture. 24 Hours later the cultures were fixed with FAM, and stained with bis-benzamide. Normal and apoptotic nuclei were counted to a total of 90-120 cells per culture.

Setting [2] is: compound 10^−6 M, AraC 300 uM-induced apoptosis, 24 hours.
The mark [3] stands for this setting: compound 10^−9 M, AraC 300 uM-induced apoptosis, 24 hours.
Where [4] appears, read: compound 10^−12 M, AraC 300 uM-induced apoptosis, 24 hours.
Setting [5] is: overall over 10^−6, 10^−9, 10^−12 M.

Molecules are shown by their SMILES. Structures can show the parent of a compound that is named as a salt.

By melting point is commonly meant the temperature, or range, at which the solid turns liquid. In the case of `CCCCCC(C)NCCC#N` (stereo in doubt) (as salt: hydrochloride) [R-2-Heptyl (Propionitriles), (R)-3-(2-Heptylamino)propionitrile hydrochloride], the melting point was in the range of 134 to 135 °C.
On the same count and under the same terms, the value for `CCCCCC(C)N(C)CCC#N` (stereo in doubt) (as salt: hydrochloride) [R-2-Heptyl-N-methyl (Propionitriles), (R)-3-(2-Heptylmethylamino)propionitrile hydrochloride] was 98 to 98.5 °C; that for `CCCCCC(C)NCC#N` (stereo in doubt) (as salt: hydrochloride) [R-2-heptyl (Acetonitriles), (R)-2-(2-Heptylamino)acetonitrile hydrochloride] was 152 to 153 °C.
Regarding `CCCCCCNCCC(=O)O` [1-Hexyl (B-Alanines), 3(1-Hexylamino)propionic acid], the melting point lay within 95 to 97 °C. For the same compound, in series [1] (setting [2]), the “Rescue by Amino Acids and Esters in the CGC Assay, 10^−6 M” value is listed as “R”. Moreover, in series [1] (setting [3]), the “Rescue by Amino Acids and Esters in the CGC Assay, 10^−9 M” value is given as “R”. In series [1] (setting [4]), the “Rescue by Amino Acids and Esters in the CGC Assay, 10^−12 M” value is listed as “R”. Besides, the “Rescue by Amino Acids and Esters in the CGC Assay, Rescue (overall yes/no)” value in series [1] (setting [5]) is “yes”.
As for `CCCCCCNCCC#N.Cl` [1-Hexyl (Propionitriles), 3-(1-Hexylamino)propionitrile hydrochloride], the melting point lay in the range of 188 to 189 °C. Also, in series [1] (setting [5]), the “Rescue by Amino Nitriles in the CGC Assay, Rescue (overall yes/no)” value (“Rescue by Amino Nitriles … (overall yes/no)” for short) was “no”.
`CC(C)NCC#N.Cl` [2-Propyl (Acetonitriles), 2-(2-Propylamino)acetonitrile hydrochloride] showed a melting point of 166 to 167 °C. In addition, in series [1] (setting [2]), the “Rescue by Amino Nitriles in the CGC Assay, 10^−6 M” value is “R”. For the same compound, the “Rescue by Amino Nitriles in the CGC Assay, 10^−9 M” value (from here on “Rescue by Amino Nitriles … 10^−9 M”) in series [1] (setting [3]) was “R”. Also, in series [1] (setting [4]), the “Rescue by Amino Nitriles in the CGC Assay, 10^−12 M” value is given as “R”. The “Rescue by Amino Nitriles … (overall yes/no)” value in series [1] (setting [5]) is given as “yes”.
`CC(C)NCCP(=O)(O)O.Cl` [2-Propyl (Amino Phosphonic Acids), 2-(2-Propylamino)ethanephosphonic acid hydrochloride] gave a melting point of 164 to 166 °C. Moreover, in series [1] (setting [2]), the “Rescue by Amino Phosphonic Acids in the CGC Assay, 10^−6 M” value is “R”. The “Rescue by Amino Phosphonic Acids in the CGC Assay, 10^−9 M” value in series [1] (setting [3]) was “R”. The “Rescue by Amino Phosphonic Acids in the CGC Assay, 10^−12 M” value in series [1] (setting [4]) is reported as “R”. Besides, the “Rescue by Amino Phosphonic Acids in the CGC Assay, Rescue (overall yes/no)” value in series [1] (setting [5]) is recorded as “yes”.
Compound `CC(C)NCCC(=O)O.Cl` [2-Propyl (B-Alanines), 3-(2-Propylamino)propionic acid hydrochloride] displayed a melting point of 154 to 155 °C. In series [1] (setting [3]), the “Rescue by Amino Acids and Esters in the CGC Assay, 10^−9 M” value is on record as “R”. For the same compound, the “Rescue by Amino Acids and Esters in the CGC Assay, 10^−12 M” value in series [1] (setting [4]) is “R”. Besides, the “Rescue by Amino Acids and Esters in the CGC Assay, Rescue (overall yes/no)” value in series [1] (setting [5]) was “yes”.
The compound `CC(C)N(C)CCC#N.Cl` [2-Propyl-N-methyl (Propionitriles), 3-(2-Propylmethylamino)propionitrile hydrochloride] registered a melting point of 121 to 121.5 °C. Besides, the “Rescue by Amino Nitriles … (overall yes/no)” value in series [1] (setting [5]) is on record as “no”.
For the compound `CCC(CC)NCCC#N.Cl` [3-Pentyl (Propionitriles), 3-(3-Pentylamino)propionitrile hydrochloride], the melting point fell in the range of 118.5 to 119.5 °C. Also, the “Rescue by Amino Nitriles in the CGC Assay, 10^−6 M” value in series [1] (setting [2]) was “R”. For the same compound, the “Rescue by Amino Nitriles … 10^−9 M” value in series [1] (setting [3]) is listed as “R”. The “Rescue by Amino Nitriles … (overall yes/no)” value in series [1] (setting [5]) is given as “yes”.
In turn, `CCCCC[C@H](C)NCC#N.Cl` [S-2-Heptyl (Acetonitriles), (S)-2-(2-Heptylamino)acetonitrile hydrochloride] had a melting point of 140 °C. For the same compound, the “Rescue by Amino Nitriles … 10^−9 M” value in series [1] (setting [3]) is reported as “R”. Besides, the “Rescue by Amino Nitriles in the CGC Assay, 10^−12 M” value in series [1] (setting [4]) is “R”. The “Rescue by Amino Nitriles … (overall yes/no)” value in series [1] (setting [5]) is “yes”.
`CCCCC[C@H](C)NCCC(=O)O.Cl` [S-2-Heptyl (B-Alanines), (S)-3-(2-Heptylamino)propionic acid hydrochloride] had a melting point of 56 to 58 °C. Further, the “Rescue by Amino Acids and Esters in the CGC Assay, Rescue (overall yes/no)” value in series [1] (setting [5]) was “no”.
Compound `CCCCC[C@H](C)NCCC#N.Cl` [S-2-heptyl (Propionitriles), (S)-3-(2-Heptylamino)propionitrile hydrochloride] returned a melting point of 133 to 134 °C. The “Rescue by Amino Nitriles … (overall yes/no)” value in series [1] (setting [5]) is given as “no”.
On the same counts, the results for `CCC(C)(C)NCCC#N.Cl` [tert-Amyl (Propionitriles), 3-(t-Amylamino)propionitrile hydrochloride] are 199 to 200 °C and “no”.
